The source of these data is ChEMBL document CHEMBL3039007, “Structure-based identification of OATP1B1/3 inhibitors” (Mol Pharmacol, 2013).

The target of series [1] is T1, Solute carrier organic anion transporter family member 1B3 (Homo sapiens, UniProt Q9NPD5).
T1 sequence (Q9NPD5 whole entry): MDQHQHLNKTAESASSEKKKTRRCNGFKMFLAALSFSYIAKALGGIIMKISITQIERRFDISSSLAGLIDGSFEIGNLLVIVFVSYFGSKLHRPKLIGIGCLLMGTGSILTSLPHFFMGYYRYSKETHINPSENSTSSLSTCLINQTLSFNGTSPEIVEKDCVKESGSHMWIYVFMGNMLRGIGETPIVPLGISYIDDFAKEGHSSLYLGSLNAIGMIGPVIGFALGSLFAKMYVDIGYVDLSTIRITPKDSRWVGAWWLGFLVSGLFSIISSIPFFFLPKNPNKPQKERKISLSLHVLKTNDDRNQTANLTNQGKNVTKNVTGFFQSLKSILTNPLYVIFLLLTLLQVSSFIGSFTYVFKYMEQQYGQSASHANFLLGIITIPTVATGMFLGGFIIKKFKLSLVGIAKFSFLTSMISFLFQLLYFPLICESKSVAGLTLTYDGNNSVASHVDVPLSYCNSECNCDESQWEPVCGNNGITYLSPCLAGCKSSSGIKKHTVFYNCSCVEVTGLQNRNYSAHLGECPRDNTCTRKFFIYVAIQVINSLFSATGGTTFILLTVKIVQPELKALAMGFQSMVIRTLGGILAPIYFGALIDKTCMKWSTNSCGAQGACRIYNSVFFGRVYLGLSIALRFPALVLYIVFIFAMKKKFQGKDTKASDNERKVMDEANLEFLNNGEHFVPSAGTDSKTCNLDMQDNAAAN

For series [2], the target named is T2, Solute carrier organic anion transporter family member 1B1 (Homo sapiens, UniProt Q9Y6L6).
T2 sequence (Q9Y6L6 whole entry): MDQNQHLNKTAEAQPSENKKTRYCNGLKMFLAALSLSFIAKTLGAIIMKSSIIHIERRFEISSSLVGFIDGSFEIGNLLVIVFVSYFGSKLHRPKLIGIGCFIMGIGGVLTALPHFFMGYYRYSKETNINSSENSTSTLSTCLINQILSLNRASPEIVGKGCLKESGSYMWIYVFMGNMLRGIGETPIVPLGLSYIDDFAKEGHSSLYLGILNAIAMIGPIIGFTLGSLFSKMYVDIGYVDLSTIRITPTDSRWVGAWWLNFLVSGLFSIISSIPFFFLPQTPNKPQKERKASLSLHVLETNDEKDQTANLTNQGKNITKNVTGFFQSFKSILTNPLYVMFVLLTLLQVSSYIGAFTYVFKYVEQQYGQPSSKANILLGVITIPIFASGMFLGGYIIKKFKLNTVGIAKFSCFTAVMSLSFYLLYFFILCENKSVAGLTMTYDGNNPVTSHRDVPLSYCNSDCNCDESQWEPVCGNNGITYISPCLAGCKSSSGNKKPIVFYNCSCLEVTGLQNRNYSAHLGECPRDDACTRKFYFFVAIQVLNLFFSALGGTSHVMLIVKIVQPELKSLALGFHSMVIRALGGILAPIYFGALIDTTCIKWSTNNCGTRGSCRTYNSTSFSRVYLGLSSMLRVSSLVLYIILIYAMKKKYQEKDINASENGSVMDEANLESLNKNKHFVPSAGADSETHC
The note with it: chinese hamster, cho, 10 µM.

Series [3] has as its target T1, Solute carrier organic anion transporter family member 1B3. The source holds these as a separate data set.
The target of series [4] is T2, Solute carrier organic anion transporter family member 1B1.
Series [5] addresses T1, Solute carrier organic anion transporter family member 1B3. The note with it: chinese hamster, cho, 10 µM.
Series [6] has as its target T2, Solute carrier organic anion transporter family member 1B1. This is another data set of the same source.

Structures are written as SMILES.

Turning to `CCCCCCCCCc1ccc(OCCOCCOCCOCCOCCOCCOCCOCCOCCO)cc1` [NONOXYNOL 9], the IC50 in series [1] is 3720 nM; in series [6] it was 3470 nM. Besides, the residual activity in series [2] stood at 32.74%; in series [5] it was 27.96%. For the same compound, the Ki in series [3] was 2870 nM; in series [4] it was 1920 nM.
On to `Cc1cc(O)c(C=O)c2c1C(=O)Oc1c(C)c(O)c3c(c1O2)C(O)OC3=O` (stereo not given) [NORSTICTIC ACID], for which the 50% inhibitory concentration (IC50) in series [1] is 550 nM; in series [6] it was 1150 nM. For the same compound, the residual activity is recorded as 10.9% in series [2] and 1.823% in series [5]. For the same compound, the results for the Ki in series [3] and in series [4] were 420 nM and 630 nM, respectively.
In the case of `CCCc1nc(C(C)(C)O)c(C(=O)OCc2oc(=O)oc2C)n1Cc1ccc(-c2ccccc2-c2nnn[nH]2)cc1` [OLMESARTAN MEDOXOMIL], the 50% inhibitory concentration (IC50) in series [1] and in series [6] was 977 nM each time. In addition, the figures for the residual activity in series [2] and in series [5] were 15.39% and 9.702%, respectively. The figures for the inhibition constant Ki in series [3] and in series [4] were 750 nM and 540 nM, respectively.
On to `C=C1[C@@H]([C@@]2(C)[C@@H](OC(C)=O)CC(=O)O[C@](C)(COC(C)=O)[C@@H]2C(=O)OC)[C@@H](OC=O)[C@H](OC(=O)[C@H](O)[C@H](C)CC)[C@@]2(C)[C@H](c3ccoc3)CC(=O)[C@]12O` [PRIEURIANIN], for which the half-inhibitory concentration (IC50) in series [1] was 3390 nM; in series [6], 2340 nM. Moreover, the residual activity in series [2] was determined as 22.79%; in series [5], 25.49%. The values for the inhibition constant (Ki) in series [3] and in series [4] were 2630 nM and 1280 nM, respectively.
Take `C[C@H]1CC[C@@]2(OC1)O[C@H]1C[C@H]3[C@@H]4CC[C@@H]5C[C@@H](O)CC[C@]5(C)[C@H]4CC[C@]3(C)[C@H]1[C@@H]2C` [SARSASAPOGENIN]: the half-inhibitory concentration (IC50) was 105 nM in series [1] and 245 nM in series [6]. The residual activity in series [2] was determined as 50.78%; in series [5], 25.69%. Further, the Ki in series [3] stood at 80 nM; in series [4], 130 nM.
Take `COc1c(CC=C(C)C)c2c(c3oc(=O)c(-c4ccc(O)cc4)c(O)c13)C=CC(C)(C)O2` [SCANDENIN]: the IC50 is 741 nM in series [1] and 1070 nM in series [6]. Also, the residual activity is given as 13.79% in series [2] and 9.001% in series [5]. The values for the inhibition constant (Ki) in series [3] and in series [4] were 560 nM and 590 nM, respectively.
With `COc1cc(C2Oc3cc([C@H]4Oc5cc(O)cc(O)c5C(=O)[C@@H]4O)ccc3OC2CO)ccc1O` (stereo not given in full) [SILIBININ], the IC50 in series [1] was 4270 nM; in series [6], 6170 nM. Also, the residual activity was 54.77% in series [2] and 46.89% in series [5]. Further, the values for the inhibition constant (Ki) in series [3] and in series [4] were 3270 nM and 3370 nM, respectively.
As to `O=C(OC[C@H]1O[C@@H](OC(=O)c2cc(O)c(O)c(OC(=O)c3cc(O)c(O)c(O)c3)c2)[C@H](OC(=O)c2cc(O)c(O)c(OC(=O)c3cc(O)c(O)c(O)c3)c2)[C@@H](OC(=O)c2cc(O)c(O)c(OC(=O)c3cc(O)c(O)c(O)c3)c2)[C@@H]1OC(=O)c1cc(O)c(O)c(OC(=O)c2cc(O)c(O)c(O)c2)c1)c1cc(O)c(O)c(OC(=O)c2cc(O)c(O)c(O)c2)c1` [TANNIC ACID], the IC50 was 4170 nM in series [1] and 2630 nM in series [6]. The figures for the residual activity in series [2] and in series [5] were 18.66% and 10.59%, respectively. The Ki in series [3] stood at 3230 nM; in series [4], 1460 nM.
Turning to `CCC(C)C(=O)O[C@@H]1C[C@@]2(C)[C@H](c3ccoc3)OC(=O)CC23OC2(C)O[C@]14[C@]1(C)[C@@H](CC(=O)OC)C5(C)CC1(O)[C@](O)(C5OC(=O)C1(C)OC1C)[C@@H](OC(C)=O)[C@]34O2` (stereo not given in full) [UTILIN], the 50% inhibitory concentration (IC50) in series [1] was 776 nM; in series [6], 676 nM. Besides, the residual activity in series [2] was -3.778%; in series [5], 2.658%. Also, the inhibitory constant (Ki) came out at 600 nM in series [3] and 380 nM in series [4].
Consider `C/C=C(\C)C(=O)O[C@H]1[C@H](OC(C)=O)[C@@]2(CO)C(CC1(C)C)C1=CC[C@@H]3[C@@]4(C)CC[C@H](O[C@@H]5O[C@H](C(=O)O)[C@@H](O[C@@H]6O[C@H](CO)[C@@H](O)[C@H](O)[C@H]6O)[C@H](O)[C@H]5O[C@@H]5O[C@H](CO)[C@@H](O)[C@H](O)[C@H]5O)[C@H](CO)C4CC[C@@]3(C)[C@@]1(C)C[C@H]2O` (stereo partly drawn) [beta-ESCIN], for which the half-maximal inhibitory concentration (IC50) in series [1] is 3390 nM; in series [6], 1410 nM. In addition, the figures for the residual activity in series [2] and in series [5] were 11.04% and 11.66%, respectively. For the same compound, the figures for the Ki in series [3] and in series [4] were 2610 nM and 780 nM, respectively.

The IC50 is the concentration at which inhibition is half-maximal. In general, residual activity refers to the signal under treatment as a percentage of the control signal. What is called Ki is a dissociation constant, usually derived from enzyme kinetics or from competition with a known ligand. A low value points to a stronger hold on the target.
